Experimental data from patent US7989458B2, “Pyrimidine derivatives as alk-5 inhibitors” (Novartis AG, priority 2006, dated 2011).

Legend:
[1] = target: T1, human ALK5 (ALK5 T204D kinase domain) (Homo sapiens, UniProt P36897, T204D); assay: ALK5 kinase activity, [33P] phosphate incorporation into casein; type: biochemical; settings: casein substrate, 1 μM unlabelled ATP
T1 construct: The kinase domain of human ALK5 (amino acids 200-503); made in house; host or cells: insect cells (baculovirus)
T1 sequence (P36897 200-503 T204D): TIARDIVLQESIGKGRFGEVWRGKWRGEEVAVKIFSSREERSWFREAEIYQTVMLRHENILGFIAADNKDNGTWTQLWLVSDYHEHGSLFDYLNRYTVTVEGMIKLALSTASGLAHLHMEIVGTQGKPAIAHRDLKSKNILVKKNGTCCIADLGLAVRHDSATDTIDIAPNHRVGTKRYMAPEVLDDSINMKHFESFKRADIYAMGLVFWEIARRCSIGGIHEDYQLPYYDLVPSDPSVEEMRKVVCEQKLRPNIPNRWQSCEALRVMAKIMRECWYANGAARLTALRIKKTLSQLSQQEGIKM
Experimental: The kinase activity of ALK5 is assessed by measuring radiolabelled phosphate [33P] incorporation in to the generic substrate, casein. The kinase domain of human ALK5 (amino acids 200-503) is fused to an N-terminal histidine tag. The kinase activity of ALK5 is rendered constitutive via point mutation at amino acid 204 (threonine to aspartate modification, ALK5 T204D) and the kinase construct is engineered to be expressed from a baculovirus expression construct in insect cells. The purified, recombinantly-expressed histidine-tagged ALK5 T204D protein is dissolved at 5.4 mg/ml in 50 mM Tris-HCl pH 8.0, 150 mM NaCl, 5 mM DTT. ALK5 T204D is dissolved to 2.5 μg/ml in assay buffer (Assay buffer: 20 mM Tris-HCl pH 7.4, 10 mM MgCl2, 2 mM MnCl2) on the day of use.
Test compounds and reference compounds are dissolved in assay buffer without DTT containing 5% (v/v) DMSO. Stock solutions of test and reference compounds are diluted in assay buffer with DTT (1.25 mM) containing 4.5% (v/v) DMSO. 10 μl of test or reference compound are added to the appropriate wells of 96 well U-bottomed plate. Total enzyme activity is determined by measuring ALK5 T204D activity in the absence of ALK5 kinase inhibitor reference compounds. Non-specific binding (NSB) is determined by measuring the activity of ALK5 T204D in the presence of ALK5 kinase inhibitor reference compounds. 10 μl of dephosphorylated casein stock solution (dephosphorylated casein is dissolved in ddH2O at 20 mg/ml) is added per well (200 μg/well final assay concentration). 20 μl of ALK5 T204D (2.5 μg/ml solution) is added per well (50 ng/well final assay concentration). The plates are left to incubate at room temperature for 10 minutes.
10 μl of ATP mix is added to the well to initiate the reaction (0.66 nM [^33P]ATP/1 μM unlabelled ATP/well final assay concentration). The ATP mix is prepared as follows, unlabelled ATP (3 mM) is dissolved in ddH2O and pH adjusted to 7.4. The stock concentration of [^33P]ATP is 10 μCi/μl. The appropriate volume of [^33P]ATP is added to unlabelled ATP solution such that the final assay concentration per well is 0.1 μCi. Following addition of the ATP mix, the plates are incubated at room temperature for 50 minutes. The kinase reaction is terminated by the addition of 50 μL Stop Buffer (20 mM Tris-HCl pH 7.4, 10 mM EDTA).
75 μl/well from the reaction plate is transferred to a Multiscreen-IP plate (MultiScreen-IP plates are prepared by added 50 μL of 70% (v/v) ethanol per well and incubated for 5 minutes at room temperature. The ethanol is removed by aspiration via a MultiScreen HTS Vacuum Manifold unit (Millipore, Cat no: MSVMHT500). The plates are washed twice by adding 200 μl/well ddH2O). The MultiScreen-IP plate is incubated at room temperature for 30 minutes to allowing binding of casein to the plate. The MultiScreen-IP plates are washed three times by adding 200 μl/well 100 mM phosphoric acid solution and the gasket is carefully removed from the back of the MultiScreen-IP plate and the plate dried in the oven for 30 minutes. The MultiScreen-IP plate is backsealed, 50 μL of Microscint™20 is added, then the plates are topsealed and radiolabelled casein detected and quantified on a TopCount™ plate-reader using the ^33P scintillation protocol.

[2] = test system: dimethylnitrosamine induced liver fibrosis; settings: rat, cited from earlier work
bleomycin-treated rats = settings: cited from earlier work
[3] = given therapeutically, 3 weeks treatment

Molecule | IC50 [1] | other results
c1ccc(-c2nc(NCc3cccc4[nH]ccc34)cc(-c3cccnc3)n2)nc1 [Example 1.1, (1H-Indol-4-ylmethyl)-(6-pyridin-3-yl-2-pyridin-2-yl-pyrimidin-4-yl)-amine] | 100 nM | –
c1ccc(-c2nc(NCCc3cccc4[nH]ccc34)cc(-c3cccnc3)n2)nc1 [Example 1.2, [2-(1H-Indol-4-yl)-ethyl]-(6-pyridin-3-yl-2-pyridin-2-yl-pyrimidin-4-yl)-amine] | 30 nM | –
Cc1cccc(-c2nc(NCCc3c[nH]c4ccccc34)cc(-c3cccnc3)n2)n1 [Example 1.3, [2-(1H-Indol-3-yl)-ethyl]-[2-(6-methyl-pyridin-2-yl)-6-pyridin-3-yl-pyrimidin-4-yl]-amine] | 60 nM | –
Cc1cccc(-c2nc(NCCc3cccc4[nH]ccc34)cc(-c3cccnc3)n2)n1 [Example 1.6, [2-(1H-Indol-4-yl)-ethyl]-[2-(6-methyl-pyridin-2-yl)-6-pyridin-3-yl-pyrimidin-4-yl]-amine] | 20 nM | –
Fc1ccc2[nH]cc(CCNc3cc(-c4cccnc4)nc(-c4ccccn4)n3)c2c1 [Example 1.15, [2-(5-Fluoro-1H-indol-3-yl)-ethyl]-(6-pyridin-3-yl-2-pyridin-2-yl-pyrimidin-4-yl)-amine] | 790 nM | –
c1ccc(-c2nc(NCc3c[nH]c4ccccc34)cc(-c3cccnc3)n2)nc1 [Example 1.23, (1H-Indol-3-ylmethyl)-(6-pyridin-3-yl-2-pyridin-2-yl-pyrimidin-4-yl)-amine] | 570 nM | –
Oc1ccc2[nH]cc(CCNc3cc(-c4cccnc4)nc(-c4ccccn4)n3)c2c1 [Example 1.29, 3-[2-(6-Pyridin-3-yl-2-pyridin-2-yl-pyrimidin-4-ylamino)-ethyl]-1H-indol-5-ol] | 370 nM | –
Fc1cccc2c(CCNc3cc(-c4cccnc4)nc(-c4ccccn4)n3)c[nH]c12 [Example 1.42, [2-(7-Fluoro-1H-indol-3-yl)-ethyl]-(6-pyridin-3-yl-2-pyridin-2-yl-pyrimidin-4-yl)-amine] | 310 nM | –
Cc1cccc(-c2nc(NCCc3cccc(O)c3)cc(-c3cccnc3)n2)n1 [Example 1.48, 3-{2-[2-(6-Methyl-pyridin-2-yl)-6-pyridin-3-yl-pyrimidin-4-ylamino]-ethyl}-phenol] | 80 nM | –
Oc1ccccc1CCNc1cc(-c2cccnc2)nc(-c2ccccn2)n1 [Example 1.62, 2-[2-(6-Pyridin-3-yl-2-pyridin-2-yl-pyrimidin-4-ylamino)-ethyl]-phenol] | 150 nM | –
c1ccc(-c2nc(NCCc3coc4ccccc34)cc(-c3cccnc3)n2)nc1 [Example 1.77, (2-Benzofuran-3-yl-ethyl)-(6-pyridin-3-yl-2-pyridin-2-yl-pyrimidin-4-yl)-amine] | 180 nM | –
Cc1ccc2c(CCNc3cc(-c4cccnc4)nc(-c4cccc(C)n4)n3)c[nH]c2c1 [Example 1.82, [2-(6-Methyl-1H-indol-3-yl)-ethyl]-[2-(6-methyl-pyridin-2-yl)-6-pyridin-3-yl-pyrimidin-4-yl]-amine] | 100 nM | –
c1ccc(-c2cc(-c3cn[nH]c3-c3ccccn3)ccn2)cc1 [GW6604] | – | side effects ([2]; during the 3 weeks treatment): no obvious side effects; inhibition of extracellular matrix deposition [2, 3]: 60%; prevention of death rate [2, 3]: 40%
Follistatin: an antagonist of activin signalling (protein, UniProt P19883 30-344, looked up) Follistatin: GNCWLRQAKNGRCQVLYKTELSKEECCSTGRLSTSWTEEDVNDNTLFKWMIFNGGAPNCIPCKETCENVDCGPGKKCRMNKKNKPRCVCAPDCSNITWKGPVCGLDGKTYRNECALLKARCKEQPELEVQYQGRCKKTCRDVFCPGSSTCVVDQTNNAYCVTCNRICPEPASSEQYLCGNDGVTYSSACHLRKATCLLGRSIGLAYEGKCIKAKSCEDIQCTGGKKCLWDFKVGRGRCSLCDELCPDSKSDEPVCASDNATYASECAMKEAACSSGVLLEVKHSGSCNSISEDTEEEEEDEDQDYSFPISSILEW | – | lung fibrosis (bleomycin-treated rats): attenuated lung fibrosis; number of macrophages and neutrophils in bronchoalveolar lavage (bleomycin-treated rats): significantly reduced

Continued, in another order:

IC50 [1] | Molecule | other results
20 nM | COc1cncc(-c2cc(NCc3cccc4[nH]ccc34)nc(-c3cccc(C)n3)n2)c1 [Example 2.2, (1H-Indol-4-ylmethyl)-[6-(5-methoxy-pyridin-3-yl)-2-(6-methyl-pyridin-2-yl)-pyrimidin-4-yl]-amine] | –
80 nM | COc1cccc(-c2cncc(-c3cc(NCc4cccc(O)c4)nc(-c4ccccn4)n3)c2)c1 [Example 2.17, 3-({6-[5-(3-Methoxy-phenyl)-pyridin-3-yl]-2-pyridin-2-yl-pyrimidin-4-ylamino}-methyl)-phenol] | –
910 nM | Cc1cncc(-c2cc(NCCc3c[nH]c4ccccc34)nc(-c3ccccn3)n2)c1 [Example 2.31, [2-(1H-Indol-3-yl)-ethyl]-[6-(5-methyl-pyridin-3-yl)-2-pyridin-2-yl-pyrimidin-4-yl]-amine] | –
420 nM | CNc1cc(-c2cncc(-c3cccc(OC)c3)c2)nc(-c2cccc(C)n2)n1 [Example 2.69, [6-[5-(3-Methoxy-phenyl)-pyridin-3-yl]-2-(6-methyl-pyridin-2-yl)-pyrimidin-4-yl]-methyl-amine] | –
10 nM | COc1cccc(-c2cncc(-c3cc(NCc4cccc(O)c4)nc(-c4cccc(C)n4)n3)c2)c1 [Example 2.70, 3-([6-[5-(3-Methoxy-phenyl)-pyridin-3-yl]-2-(6-methyl-pyridin-2-yl)-pyrimidin-4-ylamino]-methyl}-phenol] | –
40 nM | Cc1cccc(-c2nc(NCc3cccc(O)c3)cc(-c3cncc(-c4ccc(F)cc4)c3)n2)n1 [Example 2.71, 3-{[6-[5-(4-Fluoro-phenyl)-pyridin-3-yl]-2-(6-methyl-pyridin-2-yl)-pyrimidin-4-ylamino]-methyl}-phenol] | –
